Experimental data published in ChEMBL document CHEMBL1150976, “The selectivity of protein kinase inhibitors: a further update” (Biochem J, 2007).

Key:
[1] = biological target: Serine/threonine-protein kinase PAK 6 (Homo sapiens) (UniProt Q9NQU5); assay: Percentage PAK6 activity remaining in the presence of 0.1uM inhibitor
[2] = biological target: Serine/threonine-protein kinase pim-3 (Homo sapiens, UniProt Q86V86); assay: Percentage PIM3 activity remaining in the presence of 0.1uM inhibitor
[3] = biological target: Mitogen-activated protein kinase 10 (Homo sapiens) (UniProt P53779); assay: Percentage JNK3 activity remaining in the presence of 0.1uM inhibitor
[4] = biological target: Ribosomal protein S6 kinase beta-1 (Homo sapiens, UniProt P23443); assay: Percentage S6K1 activity remaining in the presence of 0.1uM inhibitor
[5] = biological target: Mitogen-activated protein kinase 11 (Homo sapiens) (UniProt Q15759); assay: Percentage p38beta activity remaining in the presence of 0.1uM inhibitor
[6] = biological target: Serine/threonine-protein kinase PAK 4 (Homo sapiens, UniProt O96013); assay: Percentage PAK4 activity remaining in the presence of 0.1uM inhibitor
[7] = biological target: Mitogen-activated protein kinase 14 (Homo sapiens, UniProt Q16539); assay: Percentage p38alpha activity remaining in the presence of 0.1uM inhibitor
[8] = biological target: Mitogen-activated protein kinase 3 (Homo sapiens) (UniProt P27361); assay: Percentage ERK1 activity remaining in the presence of 0.1uM inhibitor
[9] = biological target: Homeodomain-interacting protein kinase 2 (Homo sapiens) (UniProt Q9H2X6); assay: Percentage HIPK2 activity remaining in the presence of 0.1uM inhibitor
[10] = biological target: Dual specificity mitogen-activated protein kinase kinase 1 (Homo sapiens) (UniProt Q02750); assay: Percentage MKK1 activity remaining in the presence of 0.1uM inhibitor
[11] = biological target: Cyclin-dependent kinase 2/cyclin A (Homo sapiens) (UniProt P24941+P20248+P78396); assay: Percentage CDK2-cyclinA activity remaining in the presence of 0.1uM inhibitor; format: protein-complex assay
Aurora kinase B = Aurora kinase B (Homo sapiens, UniProt Q96GD4); assay: Percentage Aurora B activity remaining in the presence of 0.1uM inhibitor
[12] = biological target: T1, Serine/threonine-protein kinase BRSK2 (Homo sapiens) (UniProt Q8IWQ3); assay: Percentage BRSK2 activity remaining in the presence of 0.1uM inhibitor
T1 sequence (whole entry): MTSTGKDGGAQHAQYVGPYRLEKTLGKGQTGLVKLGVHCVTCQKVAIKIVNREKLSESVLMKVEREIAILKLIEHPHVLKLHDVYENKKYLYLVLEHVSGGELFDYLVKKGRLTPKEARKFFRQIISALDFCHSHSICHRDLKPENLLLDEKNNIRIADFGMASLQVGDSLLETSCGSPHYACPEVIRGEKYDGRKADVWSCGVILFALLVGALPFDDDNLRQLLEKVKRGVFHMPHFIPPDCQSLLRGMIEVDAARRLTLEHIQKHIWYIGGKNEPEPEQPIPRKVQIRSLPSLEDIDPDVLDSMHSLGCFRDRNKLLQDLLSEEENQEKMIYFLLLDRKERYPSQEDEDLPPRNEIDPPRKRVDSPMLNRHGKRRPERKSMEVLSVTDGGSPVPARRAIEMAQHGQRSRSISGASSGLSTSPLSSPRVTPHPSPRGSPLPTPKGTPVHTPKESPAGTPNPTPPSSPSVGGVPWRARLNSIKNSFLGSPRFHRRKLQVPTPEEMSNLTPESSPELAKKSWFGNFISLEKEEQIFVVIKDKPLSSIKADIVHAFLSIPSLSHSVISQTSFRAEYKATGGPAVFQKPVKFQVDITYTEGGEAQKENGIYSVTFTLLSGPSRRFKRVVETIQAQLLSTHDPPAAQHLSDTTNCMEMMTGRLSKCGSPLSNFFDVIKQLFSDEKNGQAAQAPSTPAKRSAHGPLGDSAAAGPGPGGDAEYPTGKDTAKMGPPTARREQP

[13] = biological target: T2, Serine/threonine-protein kinase 3 (Homo sapiens) (UniProt Q13188); assay: Percentage MST2 activity remaining in the presence of 0.1uM inhibitor
T2 sequence (whole entry): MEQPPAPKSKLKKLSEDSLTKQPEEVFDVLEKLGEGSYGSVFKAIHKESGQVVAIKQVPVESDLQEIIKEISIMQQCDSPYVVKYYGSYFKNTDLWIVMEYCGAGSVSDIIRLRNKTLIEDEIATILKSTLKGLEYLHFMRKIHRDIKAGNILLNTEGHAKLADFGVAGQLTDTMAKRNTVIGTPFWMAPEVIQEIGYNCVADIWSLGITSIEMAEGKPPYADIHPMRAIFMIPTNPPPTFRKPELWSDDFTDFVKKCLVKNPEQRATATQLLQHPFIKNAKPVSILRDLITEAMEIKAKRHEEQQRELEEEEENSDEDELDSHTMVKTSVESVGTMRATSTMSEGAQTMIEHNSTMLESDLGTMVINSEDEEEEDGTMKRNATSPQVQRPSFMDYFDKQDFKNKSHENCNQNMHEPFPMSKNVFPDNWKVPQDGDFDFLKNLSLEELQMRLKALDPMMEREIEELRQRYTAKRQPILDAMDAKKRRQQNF

[14] = biological target: T3, 3-phosphoinositide-dependent protein kinase 1 (Homo sapiens) (UniProt O15530); assay: Percentage PDK1 activity remaining in the presence of 0.1uM inhibitor
T3 sequence (whole entry): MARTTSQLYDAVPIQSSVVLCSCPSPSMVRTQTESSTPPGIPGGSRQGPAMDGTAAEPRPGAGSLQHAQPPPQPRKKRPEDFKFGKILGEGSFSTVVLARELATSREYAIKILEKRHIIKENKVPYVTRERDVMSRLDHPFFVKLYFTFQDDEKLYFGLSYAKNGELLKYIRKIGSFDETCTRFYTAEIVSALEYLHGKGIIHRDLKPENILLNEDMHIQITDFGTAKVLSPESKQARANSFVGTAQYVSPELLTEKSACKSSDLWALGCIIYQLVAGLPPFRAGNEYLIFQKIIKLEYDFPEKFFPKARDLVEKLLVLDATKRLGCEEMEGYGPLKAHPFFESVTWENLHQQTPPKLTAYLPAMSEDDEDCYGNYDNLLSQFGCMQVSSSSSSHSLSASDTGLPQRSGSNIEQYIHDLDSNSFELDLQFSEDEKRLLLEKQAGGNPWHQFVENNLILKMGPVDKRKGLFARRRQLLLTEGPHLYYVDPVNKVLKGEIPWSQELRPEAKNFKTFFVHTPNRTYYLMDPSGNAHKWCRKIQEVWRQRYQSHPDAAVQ

[15] = biological target: Serine/threonine-protein kinase PLK1 (Homo sapiens, UniProt P53350); assay: Percentage PLK1 activity remaining in the presence of 0.1uM inhibitor
[16] = biological target: Rho-associated protein kinase 2 (Homo sapiens) (UniProt O75116); assay: Percentage ROCK2 activity remaining in the presence of 0.1uM inhibitor
[17] = biological target: Tyrosine-protein kinase CSK (Homo sapiens, UniProt P41240); assay: Percentage CSK activity remaining in the presence of 0.1uM inhibitor
[18] = biological target: Serine/threonine-protein kinase Nek6 (Homo sapiens) (UniProt Q9HC98); assay: Percentage NEK6 activity remaining in the presence of 0.1uM inhibitor
Sequence of Serine/threonine-protein kinase Nek6 (Homo sapiens) (Q9HC98 whole entry): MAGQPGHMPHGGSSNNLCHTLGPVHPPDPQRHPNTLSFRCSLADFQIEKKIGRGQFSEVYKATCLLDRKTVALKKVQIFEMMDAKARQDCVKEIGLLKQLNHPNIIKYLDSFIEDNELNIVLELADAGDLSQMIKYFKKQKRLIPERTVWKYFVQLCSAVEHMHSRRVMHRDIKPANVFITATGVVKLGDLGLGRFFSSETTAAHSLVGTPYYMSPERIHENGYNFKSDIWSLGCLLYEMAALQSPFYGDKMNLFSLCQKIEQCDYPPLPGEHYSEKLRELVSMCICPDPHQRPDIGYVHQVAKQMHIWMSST

Sequence of Serine/threonine-protein kinase PAK 4 (O96013 whole entry, looked up): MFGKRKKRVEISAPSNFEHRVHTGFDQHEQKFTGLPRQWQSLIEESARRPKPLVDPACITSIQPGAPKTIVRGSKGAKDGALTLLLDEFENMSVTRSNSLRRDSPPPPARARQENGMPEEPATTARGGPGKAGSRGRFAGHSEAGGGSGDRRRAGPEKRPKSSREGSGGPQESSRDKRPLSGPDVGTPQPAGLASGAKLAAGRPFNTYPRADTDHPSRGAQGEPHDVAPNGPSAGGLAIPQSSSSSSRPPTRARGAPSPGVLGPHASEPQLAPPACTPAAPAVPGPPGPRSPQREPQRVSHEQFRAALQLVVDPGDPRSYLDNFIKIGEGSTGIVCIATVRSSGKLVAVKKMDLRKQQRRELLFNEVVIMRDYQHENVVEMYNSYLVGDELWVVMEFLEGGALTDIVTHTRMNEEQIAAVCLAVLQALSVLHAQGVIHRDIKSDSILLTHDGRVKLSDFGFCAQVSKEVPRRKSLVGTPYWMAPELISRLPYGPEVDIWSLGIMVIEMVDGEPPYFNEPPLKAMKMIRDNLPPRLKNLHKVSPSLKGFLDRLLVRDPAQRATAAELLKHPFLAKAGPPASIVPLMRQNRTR
Sequence of Serine/threonine-protein kinase PAK 6 (Homo sapiens) (Q9NQU5 whole entry, looked up): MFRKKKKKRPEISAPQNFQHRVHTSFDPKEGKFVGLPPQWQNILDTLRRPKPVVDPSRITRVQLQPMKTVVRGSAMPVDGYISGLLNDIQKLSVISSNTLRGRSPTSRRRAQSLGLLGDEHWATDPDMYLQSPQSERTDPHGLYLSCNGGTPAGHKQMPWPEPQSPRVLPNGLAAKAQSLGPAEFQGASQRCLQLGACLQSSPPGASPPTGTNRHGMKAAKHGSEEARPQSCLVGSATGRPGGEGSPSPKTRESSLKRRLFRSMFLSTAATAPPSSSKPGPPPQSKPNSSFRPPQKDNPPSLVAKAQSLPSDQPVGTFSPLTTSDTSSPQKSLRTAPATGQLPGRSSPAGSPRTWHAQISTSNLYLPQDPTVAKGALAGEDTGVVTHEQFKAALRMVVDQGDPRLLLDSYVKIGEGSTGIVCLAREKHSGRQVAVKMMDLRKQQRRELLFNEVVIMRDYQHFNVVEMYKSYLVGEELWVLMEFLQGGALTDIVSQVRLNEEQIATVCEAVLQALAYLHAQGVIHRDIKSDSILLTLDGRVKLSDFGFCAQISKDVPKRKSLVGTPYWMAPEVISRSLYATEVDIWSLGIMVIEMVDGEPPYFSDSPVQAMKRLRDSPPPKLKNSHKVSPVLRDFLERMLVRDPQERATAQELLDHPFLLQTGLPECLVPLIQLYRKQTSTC
Sequence of Mitogen-activated protein kinase 14 (Q16539 whole entry): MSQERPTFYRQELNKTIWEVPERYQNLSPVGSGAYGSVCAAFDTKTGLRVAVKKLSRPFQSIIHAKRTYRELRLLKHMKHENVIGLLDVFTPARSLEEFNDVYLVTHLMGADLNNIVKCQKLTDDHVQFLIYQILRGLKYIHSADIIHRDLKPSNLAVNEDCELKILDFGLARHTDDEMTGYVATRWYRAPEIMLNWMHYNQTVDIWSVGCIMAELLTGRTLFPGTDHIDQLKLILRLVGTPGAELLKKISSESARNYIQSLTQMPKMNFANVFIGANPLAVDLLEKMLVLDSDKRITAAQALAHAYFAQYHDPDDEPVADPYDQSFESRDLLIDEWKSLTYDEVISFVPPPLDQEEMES
Sequence of Rho-associated protein kinase 2 (Homo sapiens) (O75116 whole entry, looked up): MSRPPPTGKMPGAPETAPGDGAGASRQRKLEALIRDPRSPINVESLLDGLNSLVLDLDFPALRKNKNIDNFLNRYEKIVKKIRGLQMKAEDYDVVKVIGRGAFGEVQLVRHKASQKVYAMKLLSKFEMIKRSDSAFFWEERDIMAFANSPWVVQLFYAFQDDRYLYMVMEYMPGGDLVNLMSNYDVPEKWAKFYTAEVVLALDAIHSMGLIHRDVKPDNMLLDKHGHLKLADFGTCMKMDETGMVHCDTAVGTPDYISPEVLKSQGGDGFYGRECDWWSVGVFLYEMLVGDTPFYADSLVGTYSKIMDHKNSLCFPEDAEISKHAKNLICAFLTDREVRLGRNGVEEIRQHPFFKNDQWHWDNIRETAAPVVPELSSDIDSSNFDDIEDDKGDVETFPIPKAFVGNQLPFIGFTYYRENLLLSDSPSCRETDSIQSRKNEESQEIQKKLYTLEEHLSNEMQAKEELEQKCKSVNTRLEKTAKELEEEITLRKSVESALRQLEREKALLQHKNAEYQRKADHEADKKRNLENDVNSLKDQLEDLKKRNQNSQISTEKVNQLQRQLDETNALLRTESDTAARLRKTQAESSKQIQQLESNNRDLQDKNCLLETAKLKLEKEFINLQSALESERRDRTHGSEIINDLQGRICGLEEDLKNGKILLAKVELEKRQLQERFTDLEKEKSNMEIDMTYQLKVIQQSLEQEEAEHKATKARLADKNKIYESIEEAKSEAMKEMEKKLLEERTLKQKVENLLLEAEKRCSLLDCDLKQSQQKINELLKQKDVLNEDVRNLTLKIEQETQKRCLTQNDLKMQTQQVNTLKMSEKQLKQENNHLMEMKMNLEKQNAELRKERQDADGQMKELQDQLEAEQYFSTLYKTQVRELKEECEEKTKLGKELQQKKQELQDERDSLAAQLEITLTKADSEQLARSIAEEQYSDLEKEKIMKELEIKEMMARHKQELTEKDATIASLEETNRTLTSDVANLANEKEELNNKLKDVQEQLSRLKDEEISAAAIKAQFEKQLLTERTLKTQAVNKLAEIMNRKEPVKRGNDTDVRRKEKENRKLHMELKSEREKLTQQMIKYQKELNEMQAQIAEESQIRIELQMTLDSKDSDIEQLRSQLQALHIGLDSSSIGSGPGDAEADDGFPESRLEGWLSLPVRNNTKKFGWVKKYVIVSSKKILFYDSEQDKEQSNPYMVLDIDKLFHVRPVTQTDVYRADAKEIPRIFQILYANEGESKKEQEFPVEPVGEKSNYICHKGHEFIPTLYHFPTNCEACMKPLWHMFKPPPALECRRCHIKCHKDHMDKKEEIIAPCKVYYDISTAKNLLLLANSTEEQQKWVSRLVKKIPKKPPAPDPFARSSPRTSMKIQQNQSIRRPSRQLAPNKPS
Sequence of Aurora kinase B (Q96GD4 whole entry): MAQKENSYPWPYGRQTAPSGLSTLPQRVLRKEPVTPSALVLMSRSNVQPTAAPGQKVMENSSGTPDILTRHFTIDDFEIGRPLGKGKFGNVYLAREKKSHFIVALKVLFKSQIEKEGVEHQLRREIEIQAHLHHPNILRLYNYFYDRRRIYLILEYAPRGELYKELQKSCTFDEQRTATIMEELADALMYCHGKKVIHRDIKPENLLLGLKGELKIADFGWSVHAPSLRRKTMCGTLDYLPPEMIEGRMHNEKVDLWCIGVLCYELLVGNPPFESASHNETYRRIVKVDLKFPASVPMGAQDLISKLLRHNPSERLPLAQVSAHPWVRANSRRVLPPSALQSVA
Sequence of Homeodomain-interacting protein kinase 2 (Homo sapiens) (Q9H2X6 whole entry, looked up): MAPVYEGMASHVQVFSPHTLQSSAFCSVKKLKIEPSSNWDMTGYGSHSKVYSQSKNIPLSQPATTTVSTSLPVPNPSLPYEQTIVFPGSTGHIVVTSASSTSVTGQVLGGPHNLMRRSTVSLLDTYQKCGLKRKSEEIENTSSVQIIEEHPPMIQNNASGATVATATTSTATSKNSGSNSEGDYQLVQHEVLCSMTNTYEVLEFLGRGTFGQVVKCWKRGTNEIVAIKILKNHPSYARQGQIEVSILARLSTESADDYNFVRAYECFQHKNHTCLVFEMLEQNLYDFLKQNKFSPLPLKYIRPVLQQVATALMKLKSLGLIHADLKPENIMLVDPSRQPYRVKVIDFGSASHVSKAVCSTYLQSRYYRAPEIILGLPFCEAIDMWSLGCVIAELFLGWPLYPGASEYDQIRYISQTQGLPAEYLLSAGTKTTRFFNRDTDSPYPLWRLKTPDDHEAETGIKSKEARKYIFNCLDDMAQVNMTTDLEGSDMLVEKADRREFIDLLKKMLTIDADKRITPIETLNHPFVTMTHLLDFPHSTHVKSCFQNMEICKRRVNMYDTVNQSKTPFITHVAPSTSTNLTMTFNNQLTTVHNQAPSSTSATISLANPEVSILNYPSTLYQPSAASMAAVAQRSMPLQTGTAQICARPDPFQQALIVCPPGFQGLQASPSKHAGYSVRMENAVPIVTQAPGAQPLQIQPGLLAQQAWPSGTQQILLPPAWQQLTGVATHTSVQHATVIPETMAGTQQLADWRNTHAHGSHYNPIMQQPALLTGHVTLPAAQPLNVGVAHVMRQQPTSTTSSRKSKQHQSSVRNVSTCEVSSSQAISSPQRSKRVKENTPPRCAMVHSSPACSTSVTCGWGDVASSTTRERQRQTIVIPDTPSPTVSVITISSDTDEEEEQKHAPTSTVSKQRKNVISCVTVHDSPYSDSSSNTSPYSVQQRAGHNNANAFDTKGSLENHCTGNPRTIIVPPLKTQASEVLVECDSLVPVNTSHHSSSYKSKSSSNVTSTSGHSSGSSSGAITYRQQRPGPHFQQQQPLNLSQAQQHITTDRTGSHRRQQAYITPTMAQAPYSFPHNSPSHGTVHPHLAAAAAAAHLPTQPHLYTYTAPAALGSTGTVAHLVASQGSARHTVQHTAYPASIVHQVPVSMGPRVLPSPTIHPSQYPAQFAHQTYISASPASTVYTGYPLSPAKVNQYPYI

O=C(NCCCNc1nc(Nc2cccc(NC(=O)N3CCCC3)c2)ncc1I)c1cccs1
Activity [1]: 85%
Activity [2]: 63%
Activity [3]: 93%
Activity [4]: 84%
Activity [5]: 71%
Activity [6]: 71%
Activity [7]: 87%
Activity [8]: 66%
Activity [9]: 101%
Activity ([10]; filed as antagonist): 33%
Activity ([11]; filed as antagonist): 10%
Activity (Aurora kinase B; filed as antagonist): 3%
Activity ([12]; filed as antagonist): 45%
Activity [13]: 92%
Activity ([14]; filed as antagonist): 5%
Activity [15]: 92%
Activity ([16]; filed as antagonist): 28%
Activity [17]: 101%
Activity [18]: 98%

Cn1cc(C2=C(c3cn(CCCSC(=N)N)c4ccccc34)C(=O)NC2=O)c2ccccc21
Activity [1]: 76%
Activity ([2]; filed as antagonist): 16%
Activity [3]: 102%
Activity ([4]; filed as antagonist): 20%
Activity [5]: 99%
Activity [6]: 75%
Activity [7]: 102%
Activity [8]: 88%
Activity [9]: 88%
Activity [10]: 87%
Activity ([11]; filed as antagonist): 3%
Activity (Aurora kinase B): 80%
Activity [12]: 65%
Activity [13]: 80%
Activity [14]: 62%
Activity [15]: 82%
Activity [16]: 88%
Activity [17]: 77%
Activity [18]: 97%

CC(C)CCN1c2nc(Nc3cc(F)c(O)c(F)c3)ncc2N(C)C(=O)C1C (configuration not stated)
Activity [1]: 102%
Activity [2]: 65%
Activity [3]: 97%
Activity [4]: 119%
Activity [5]: 100%
Activity [6]: 81%
Activity [7]: 88%
Activity [8]: 115%
Activity [9]: 103%
Activity [10]: 98%
Activity [11]: 84%
Activity (Aurora kinase B; filed as antagonist): 22%
Activity [12]: 78%
Activity ([13]; filed as antagonist): 41%
Activity [14]: 94%
Activity ([15]; filed as antagonist): 5%
Activity [16]: 84%
Activity [17]: 99%
Activity [18]: 115%

CC(C)[C@H](CO)Nc1nc(Nc2cccc(Cl)c2)c2ncn(C(C)C)c2n1 [PURVALANOLA]
Activity [1]: 67%
Activity [2]: 91%
Activity [3]: 100%
Activity [4]: 87%
Activity [5]: 90%
Activity ([6]; filed as antagonist): 43%
Activity [7]: 95%
Activity [8]: 95%
Activity ([11]; filed as antagonist): 9%
Activity (Aurora kinase B): 89%
Activity [12]: 76%
Activity [13]: 60%
Activity [14]: 79%
Activity [15]: 81%
Activity [16]: 93%
Activity [17]: 82%
Activity [18]: 91%

CN(C)C[C@@H]1CCn2cc(c3ccccc32)C2=C(C(=O)NC2=O)c2cn(c3ccccc23)CCO1
Activity [1]: 81%
Activity ([2]; filed as antagonist): 5%
Activity [3]: 112%
Activity [4]: 52%
Activity [5]: 109%
Activity [6]: 75%
Activity [8]: 84%
Activity [9]: 63%
Activity ([10]; filed as antagonist): 42%
Activity [11]: 68%
Activity (Aurora kinase B): 65%
Activity ([13]; filed as antagonist): 37%
Activity ([14]; filed as antagonist): 25%
Activity [15]: 85%
Activity [16]: 94%
Activity [17]: 78%
Activity [18]: 93%

Cc1n[nH]c2ccc(-c3cncc(OC[C@@H](N)Cc4c[nH]c5ccccc45)c3)cc12
Activity [1]: 87%
Activity ([2]; filed as antagonist): 13%
Activity [3]: 86%
Activity ([4]; filed as antagonist): 32%
Activity [5]: 105%
Activity [6]: 90%
Activity [7]: 92%
Activity [8]: 59%
Activity ([9]; filed as antagonist): 24%
Activity [10]: 67%
Activity (Aurora kinase B): 80%
Activity [12]: 79%
Activity ([13]; filed as antagonist): 29%
Activity [14]: 79%
Activity [15]: 80%
Activity ([16]; filed as antagonist): 8%
Activity [17]: 93%
Activity [18]: 95%

Cn1c2ccccc2c2c3c(c4c5ccccc5n(CCC#N)c4c21)CNC3=O
Activity ([1]; filed as antagonist): 6%
Activity ([2]; filed as antagonist): 7%
Activity [3]: 79%
Activity ([4]; filed as antagonist): 12%
Activity [5]: 100%
Activity ([6]; filed as antagonist): 5%
Activity [7]: 100%
Activity ([8]; filed as antagonist): 44%
Activity [9]: 63%
Activity ([10]; filed as antagonist): 34%
Activity ([11]; filed as antagonist): 8%
Activity (Aurora kinase B; filed as antagonist): 17%
Activity ([12]; filed as antagonist): 46%
Activity ([13]; filed as antagonist): 3%
Activity ([14]; filed as antagonist): 11%
Activity [15]: 80%
Activity [17]: 75%
Activity [18]: 96%
